This is an account of results in PubChem BioAssay (NCI).

Molecules are shown by their SMILES.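 Method: 48-hour compound exposure of cells in 96-well plates, five concentrations, linear interpolation of endpoints. Abbreviation: GI50, concentration required for 50% inhibition of growth. TGI: concentration producing complete growth inhibition.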

Common to all, as to experiment: NCI-60 cell line screen, 48 h
The test system of test [1] is NCI-H23 lung.
For test [2], the system named is OVCAR-8 ovarian.
In test [3] the test system is MALME-3M melanoma.
The subject of test [4] is PC-3 prostate.
Test [5] relates to KM12 colon.
Test [6] has as its system HCC-2998 colon.
The subject of test [7] is CCRF-CEM leukemia.
Test [8] relates to COLO 205 colon.
Test [9] has as its system SK-MEL-2 melanoma.
In test [10] the test system is SN12C renal.

Turning to `CC1=C(C(=O)Nc2ccc3[nH]ncc3c2)C(c2ccc(F)cc2)NC(=O)N1` (centres undefined), the GI50 in test [1], in test [2], in [3], in test [4], in test [5] and in [6] was above 25 µM throughout. In addition, the GI50 in test [7], in test [8], in [9] and in test [10] was above 25 µM each time. For the same compound, the TGI in test [1], in [2], in [3], in [4], in test [5] and in [6] was above 25 µM throughout. For the same compound, the TGI in [7], in test [8], in test [9] and in [10] was above 25 µM each time.
`COc1cc(C(=O)/C=C/c2c(-c3ccc(F)cc3)nc3sc(C)cn23)cc(OC)c1OC`: the GI50 in test [1] is 2.24 µM; in [2] it was 4.94 µM; in test [3], 2.69 µM; in test [4], 2.41 µM; in test [5] it was 3.63 µM; in [6], 9.93 µM. Besides, the GI50 in test [7] is 7.19 µM; in test [8], 4.94 µM; in test [9] it was 5.75 µM; in test [10], 9.01 µM. Besides, the TGI is 8.87 µM in [1]; above 100 µM in [2]; above 100 µM in test [3]; above 100 µM in test [4]; above 100 µM in test [5]; above 100 µM in test [6]. Also, the TGI in test [7], in [8], in test [9] and in [10] was above 100 µM each time.
For the compound `C=C1C(=O)O[C@H]2[C@H]1CC/C(CNS(=O)(=O)c1ccc3ccccc3c1)=C\CC[C@@]1(C)O[C@@H]21`, the GI50 is 2.03 µM in [1]; 3.36 µM in [2]; 1.94 µM in [3]; 7.59 µM in [4]; 10.8 µM in test [5]; 3.68 µM in test [6]. The GI50 in test [7] is 0.399 µM; in [8], 1.16 µM; in test [9], 2.13 µM; in test [10] it was 2.15 µM. Further, the TGI in test [1] was 6.14 µM; in test [2], 12.6 µM; in test [3] it was 4.59 µM; in [4], 21.1 µM; in test [5], 23.8 µM; in test [6], 11.3 µM. For the same compound, the TGI in test [7] is 2.31 µM; in test [8], 2.69 µM; in test [9], 5.45 µM; in [10], 7.13 µM.
With `CNc1nc(C)c(-c2nc(Nc3cccc(S(N)(=O)=O)c3)ncc2F)s1`, the GI50 in test [1] is 0.0432 µM; in test [2], 0.0394 µM; in [3], 0.0797 µM; in [4], 0.0388 µM; in [5] it was 0.0368 µM; in test [6], 0.0408 µM. Also, the GI50 in test [7] was 0.0358 µM; in test [8], 0.0212 µM; in test [9], 0.0358 µM; in [10], 0.0313 µM. Also, the TGI in test [1] came to 0.171 µM; in test [2] it was 15.9 µM; in [3], 0.187 µM; in test [4], 1.27 µM; in test [5], 4.43 µM; in [6], 2.48 µM. Also, the TGI in [7] was above 40.9 µM; in test [8], 0.0532 µM; in test [9], 0.0939 µM; in [10], 2.69 µM.
Turning to `N#Cc1cccc(C(=O)c2cnn(-c3ccc(F)cc3)c2N)c1`, the GI50 in test [1], in test [2], in test [3], in [4], in [5] and in test [6] was above 25 µM each time. Moreover, the GI50 in test [7] was above 25 µM; in test [8], above 25 µM; in test [9] it was 24.4 µM; in [10], above 25 µM. In addition, the TGI in test [1], in test [2], in test [3], in test [4], in test [5] and in test [6] was above 25 µM in each case. The TGI in [7], in [8], in test [9] and in test [10] was above 25 µM throughout.
On to `O=C(Nc1ccc(Cl)cc1)c1cc2c(cc1O)[nH]c1ccccc12`, for which the GI50 in test [1] is 2.54 µM; in test [2], 3.25 µM; in [3], 2.45 µM; in test [4], 3.96 µM; in [5] it was 2.89 µM; in test [6] it was 2 µM. For the same compound, the GI50 in [7] is 4.37 µM; in test [8] it was 2.39 µM; in test [9], 2.47 µM; in test [10], 2.93 µM. In addition, the TGI was determined as 9.68 µM in test [1]; 12.9 µM in test [2]; 5.76 µM in test [3]; 22.8 µM in test [4]; 7.27 µM in [5]; 5.27 µM in test [6]. For the same compound, the TGI in test [7] was above 100 µM; in [8], 5.53 µM; in test [9] it was 6.98 µM; in [10], 11.3 µM.
Take `Nc1c(C(=O)c2cccc(-c3ccc[n+]([O-])c3)c2)cnn1-c1ccc(F)cc1F`: the GI50 in test [1], in test [2], in test [3], in test [4], in test [5] and in [6] was above 25 µM throughout. In addition, the GI50 in [7], in test [8], in test [9] and in test [10] was above 25 µM throughout. Besides, the TGI in test [1], in test [2], in test [3], in test [4], in test [5] and in test [6] was above 25 µM throughout. Also, the TGI in test [7], in [8], in [9] and in test [10] was above 25 µM each time.
Take `O=S1(=O)N(Cc2ccccc2)[C@@H](Cc2ccccc2)C2O[C@H]2[C@H](Cc2ccccc2)N1Cc1ccccc1` (some centres undefined): the GI50 in test [1] was 3.47 µM; in test [2], above 7.5 µM; in test [3] it was above 7.5 µM; in test [4], 3.06 µM; in [5] it was 7.19 µM; in [6], above 7.5 µM. Besides, the GI50 in test [7], in test [8], in test [9] and in test [10] was above 7.5 µM in each case. Besides, the TGI in test [1], in test [2], in test [3], in test [4], in test [5] and in test [6] was above 7.5 µM in each case. In addition, the TGI in test [7], in test [8], in test [9] and in test [10] was above 7.5 µM throughout.
Regarding `CCCCCCCCCCCCCCCC(=O)OCC1OC(n2cnc3c(=S)nc(N)[nH]c32)C(OC(=O)CCCCCCCCCCCCCCC)C1OC(=O)CCCCCCCCCCCCCCC` (centres undefined), the GI50 in test [1] is 12.9 µM; in test [2] it was 3.42 µM; in [3] it was above 28.3 µM; in test [4], 9.96 µM; in test [5] it was 9.48 µM; in test [6], 6.88 µM. Moreover, the GI50 is 1.85 µM in test [7], 7.39 µM in test [8], 4.39 µM in test [9] and 18.3 µM in test [10]. Moreover, the TGI in test [1], in test [2], in test [3], in [4], in [5] and in test [6] was above 50 µM in each case. The TGI was above 50 µM in test [7], 35.8 µM in test [8], 28.4 µM in test [9] and above 50 µM in test [10].
As for `C[C@@H]1COCCN1c1nc(-c2cnc(N)cc2C(F)F)nc(N2[C@H](C)COC[C@@H]2C)n1`, the GI50 in [1] was 0.267 µM; in [2], 0.367 µM; in test [3] it was 0.0875 µM; in test [4], 0.215 µM; in test [5], 0.423 µM; in test [6], 0.31 µM. Further, the GI50 is 0.431 µM in test [7], 0.371 µM in [8], 0.382 µM in test [9] and 0.302 µM in test [10]. For the same compound, the TGI in test [1] is 15.7 µM; in test [2] it was 21.4 µM; in [3], 0.867 µM; in [4] it was 14.4 µM; in test [5] it was 13.8 µM; in test [6] it was 12.2 µM. The TGI was found to be 21.2 µM in test [7], 12.5 µM in [8], 7.62 µM in test [9] and 15.9 µM in test [10].
For the compound `CCCCCCOc1ccc(/C=N/NC(N)=S)cc1`, the GI50 is 4.3 µM in test [1]; 7.69 µM in [2]; 2.74 µM in test [3]; 4.07 µM in [4]; 3.09 µM in test [5]; 6.45 µM in [6]. Further, the GI50 in [7] was 0.605 µM; in test [8], 7.21 µM; in test [9], 6.95 µM; in test [10] it was 2.16 µM. Further, the TGI was above 100 µM in [1]; above 100 µM in test [2]; 7.82 µM in test [3]; above 100 µM in test [4]; 13.6 µM in test [5]; above 100 µM in [6]. Also, the TGI in [7] is 7.69 µM; in test [8] it was 48.5 µM; in test [9], above 49.9 µM; in [10], 9.9 µM.
Consider `O=c1[nH]cnc2c1nnn2C1OC(CO)C(O)C1O` (centres undefined), for which the GI50 is 4.25 µM in test [1]; 0.683 µM in test [2]; 2.64 µM in [3]; 2.43 µM in test [4]; 3.89 µM in [5]; 2.65 µM in [6]. Moreover, the GI50 in [7] is 0.551 µM; in [8], 1.44 µM; in test [9], 12.3 µM; in test [10], 6.57 µM. For the same compound, the TGI in test [1] is above 100 µM; in test [2], above 100 µM; in test [3] it was above 59 µM; in [4], above 100 µM; in test [5], above 100 µM; in test [6], 24.5 µM. Further, the TGI in test [7] was above 28 µM; in test [8], 9.94 µM; in [9] it was above 100 µM; in test [10], above 100 µM.
On to `C=C1C(=O)O[C@H]2[C@H]1CC/C(CNC(=O)/C=C/c1cccc(OC)c1)=C\CC[C@@]1(C)O[C@@H]21`, for which the GI50 in test [1] is 1.67 µM; in test [2], 2.19 µM; in test [3], 1.48 µM; in test [4], 1.8 µM; in test [5], 5.8 µM; in test [6] it was 1.83 µM. The GI50 is 0.419 µM in [7], 1.34 µM in test [8], 1.47 µM in test [9] and 1.53 µM in [10]. Further, the TGI in test [1] is 3.35 µM; in test [2], 8.07 µM; in test [3], 3.3 µM; in test [4], 3.86 µM; in test [5], 20.5 µM; in test [6], 3.31 µM. The TGI in test [7] was determined as 5.29 µM; in test [8], 2.85 µM; in test [9], 3.31 µM; in test [10], 4.34 µM.
As for `CN(C)c1ccc(C(=O)c2ccc(N(C)C)c(N)c2)cc1N`, the GI50 in [1] is 9.75 µM; in test [2], 8.99 µM; in test [4], 5.97 µM; in test [5], 0.785 µM; in [6], 3.9 µM; in test [7], 1.93 µM. The values for the GI50 in test [8], in [9] and in test [10] were 2.32 µM, 4.3 µM and 6.08 µM, respectively. Moreover, the TGI in test [1] was above 80.8 µM; in [2], above 100 µM; in test [3], above 100 µM; in test [4], above 100 µM; in test [5], 43.4 µM; in test [6] it was 39.3 µM. In addition, the TGI in [7] was above 100 µM; in test [8], 18.5 µM; in test [9] it was above 100 µM; in [10], above 100 µM.
